From patent US5326771A, “Piperidylmethyl-substituted chroman derivatives” (Bayer Aktiengesellschaft, priority 1991, dated 1994)
Structures can show the parent of a compound that is named as a salt.

How the values were obtained:
5-HT1A receptor = biological target: T1, 5-HT1A receptor (Bos taurus, UniProt F6Q2H9); experiment: Affinity for the 5-HT1A receptor (3H-ipsapirone bonding, calf hippocampus membranes); format: binding
T1 construct: 5-HT1A receptors in calf hippocampus membranes; from tissue; host or cells: calf hippocampus membranes
T1 sequence (F6Q2H9 1-422): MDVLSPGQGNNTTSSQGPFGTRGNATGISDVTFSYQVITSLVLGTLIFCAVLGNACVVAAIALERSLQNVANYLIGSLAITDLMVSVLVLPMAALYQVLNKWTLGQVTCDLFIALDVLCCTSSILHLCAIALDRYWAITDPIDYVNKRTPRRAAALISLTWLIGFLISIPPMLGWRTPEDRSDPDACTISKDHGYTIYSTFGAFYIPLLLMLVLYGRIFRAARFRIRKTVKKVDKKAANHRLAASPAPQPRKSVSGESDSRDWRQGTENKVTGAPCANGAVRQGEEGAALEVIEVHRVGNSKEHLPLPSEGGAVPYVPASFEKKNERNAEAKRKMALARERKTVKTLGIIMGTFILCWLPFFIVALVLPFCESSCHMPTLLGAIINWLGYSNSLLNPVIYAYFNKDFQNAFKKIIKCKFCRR
Protocol: [W. U. Dompert et al., Naunyn-Schmiedeberg's Arch. Pharmacol. (1985), 328, 467-470].
The bonding of ^3 H-ipsapirone to 5-HT1A receptors in calf hippocampus membranes is measured in this test.

5-HT1 receptor = experiment: Affinity for the 5-HT1 receptor (receptor-bonding, 3H-serotonin, calf hippocampus membranes); format: binding; settings: calf hippocampus membrane preparations, 3H-serotonin as radioligand
Protocol: The high affinity of the compounds according to the invention for 5-hydroxytryptamine receptors of the subtype 1 is shown by way of example in Table [A]. The values stated are data which were determined from receptor-bonding studies using calf hippocampus membrane preparations. ^3 H-Serotonin was used as the radioactively labelled ligand for this purpose.

Dopamine D2 receptor = biological target: T2, Dopamine D2 receptor (Rattus norvegicus, UniProt P61169); experiment: Dopamine D2 receptor test (3H-sulpiride bonding, rat striatum membranes); format: binding; settings: Ki calculated from IC50 of displacement curves
T2 construct: membranes from the striatum of the rat; from tissue; host or cells: rat striatum membranes
Protocol: This test is carried out in accordance with the following literature reference: Imafuku J. (1987), Brain Research 402; 331-338.
The bonding of the selective D2 receptor antagonist ^3 H-sulpiride to membranes from the striatum of the rat is measured here. Compounds which bond to dopamine D2 receptors inhibit the bonding of ^3 H-sulpiride as a function of the concentration. IC50 values are determined from the displacement curves, and the inhibition constants Ki are calculated from these.

α-adrenergic = settings: in the form of its hydrochloride; Eur. J. Med. Chem. 22 (6), 539-544; cited from earlier work

T2 sequence (P61169 whole entry): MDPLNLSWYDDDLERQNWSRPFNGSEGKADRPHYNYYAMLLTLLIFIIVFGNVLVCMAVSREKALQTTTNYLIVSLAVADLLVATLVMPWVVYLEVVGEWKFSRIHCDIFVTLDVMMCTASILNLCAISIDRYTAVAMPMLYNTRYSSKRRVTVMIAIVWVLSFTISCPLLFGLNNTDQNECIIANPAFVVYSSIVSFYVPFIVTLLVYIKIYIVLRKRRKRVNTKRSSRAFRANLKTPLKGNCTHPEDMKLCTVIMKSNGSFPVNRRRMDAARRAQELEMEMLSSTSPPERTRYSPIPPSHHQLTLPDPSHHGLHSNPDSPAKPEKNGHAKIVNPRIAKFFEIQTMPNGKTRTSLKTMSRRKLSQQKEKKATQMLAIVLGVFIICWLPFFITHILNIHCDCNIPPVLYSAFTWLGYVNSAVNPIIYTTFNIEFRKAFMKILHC

COc1cccc2c1OC(CN1CCC(O)(c3cccc(C(F)(F)F)c3)CC1)CC2 (centres unmarked) [Example 9]
Ki (5-HT1A receptor): 6 nM

COc1cccc2c1OC(CN1CCC(O)(c3ccc(Cl)cc3)CC1)CC2 (centres unmarked) [Example 1, 2-[4-(4-Chlorophenyl)-4-hydroxy-piperidin-1-yl]methyl-8-methoxy-chroman hydrochloride]
Ki (5-HT1 receptor): 22 nM

COc1cccc2c1OC(CN1CCC(c3ccccc3)(c3ccccc3)CC1)CC2 (centres unmarked) [Example 5]
Ki (5-HT1A receptor): 9.9 nM

OC1(c2cccc(C(F)(F)F)c2)CCN(CC2CCc3ccccc3O2)CC1 (centres unmarked) [Example 10]
Ki (Dopamine D2 receptor): 2.3 nM

c1ccc2c(c1)CCC(CN1CCCCC1)O2 (centres unmarked) [1-[(3,4-dihydro-2H-1-benzopyran-2-yl)methyl]piperidine]
α-adrenergic blocking action (α-adrenergic): having an α-adrenergic blocking action

OC1(c2ccc(Cl)c(C(F)(F)F)c2)CCN(CC2CCc3ccccc3O2)CC1 (centres unmarked) [Example 8]
Ki (Dopamine D2 receptor): 0.9 nM

OC1(c2ccc(Cl)cc2)CCN(CC2CCc3ccccc3O2)CC1 (centres unmarked) [Example 4]
Ki (5-HT1 receptor): 76 nM | Ki (Dopamine D2 receptor): 2.5 nM
